Experimental data as given in the supplement of paper PMC13207355.
Structures can show the parent of a compound that is named as a salt.

Assays:
Settings in all cases: exposure time: 72 h
E28 [1] = patient-derived glioblastoma stem cells of classical subtype; experiment: surviving fraction (nuclei count normalised to DMSO); higher = more cells surviving (less toxic)
E13 [2] = patient-derived glioblastoma stem cells of classical subtype; experiment: as above
E57 [3] = patient-derived glioblastoma stem cells of mesenchymal subtype; experiment: as above
E21 [4] = patient-derived glioblastoma stem cells of mesenchymal subtype; experiment: as above
E31 [5] = patient-derived glioblastoma stem cells of proneural subtype; experiment: as above
FT3469 [6] = normal neural stem cell line; experiment: as above
E34 [7] = patient-derived glioblastoma stem cells of proneural subtype; experiment: as above
E28 [8] = experiment: phenotypic distance (Euclidean, principal components) from DMSO controls (arbitrary units); higher = stronger morphological change
E13 [9] = experiment: as above
E57 [10] = experiment: as above
E21 [11] = experiment: as above
E31 [12] = experiment: as above
FT3469 [13] = experiment: as above
E34 [14] = experiment: as above
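Wherever phenotypic distance (Euclidean, principal components) from DMSO controls is given: cell Painting imaging in 384-well plates, CellProfiler features reduced to at least 20 principal components, Euclidean distance versus same-plate DMSO vehicle wells (0.1% v/v), median over six images per well.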
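Wherever surviving fraction (nuclei count normalised to DMSO) is given: nuclei counted by high-content imaging of Hoechst-stained cells in laminin-coated 384-well plates, relative to 0.1% DMSO vehicle wells, with staurosporine as cell-death control.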

CN1[C@@H]2CC[C@H]1CC(OC(=O)c1c[nH]c3ccccc13)C2 (stereo partly specified) [3-Tropanyl-indole-3-carboxylate hydrochloride]
Settings | phenotypic distance | surviving fraction
E13 [2], 4.1 nM | – | 1.02
E13 [2], 12.3 nM | – | 0.939
E13 [2], 37 nM | – | 0.913
E13 [2], 111.1 nM | – | 0.975
E13 [2], 333.3 nM | – | 0.828
E13 [2], 1000 nM | – | 0.931
E13 [2], 3000 nM | – | 0.699
E13 [9], 4.1 nM | 0.681 | –
E13 [9], 12.3 nM | 1.03 | –
E13 [9], 37 nM | 0.87 | –
E13 [9], 111.1 nM | 0.726 | –
E13 [9], 333.3 nM | 0.624 | –
E13 [9], 1000 nM | 1.01 | –
E13 [9], 3000 nM | 1.66 | –
E21 [4], 4.1 nM | – | 0.945
E21 [4], 12.3 nM | – | 0.965
E21 [4], 37 nM | – | 0.912
E21 [4], 111.1 nM | – | 1
E21 [4], 333.3 nM | – | 0.935
E21 [4], 1000 nM | – | 0.929
E21 [4], 3000 nM | – | 0.821
E21 [11], 4.1 nM | 0.866 | –
E21 [11], 12.3 nM | 0.871 | –
E21 [11], 37 nM | 0.74 | –
E21 [11], 111.1 nM | 0.815 | –
E21 [11], 333.3 nM | 0.781 | –
E21 [11], 1000 nM | 0.853 | –
E21 [11], 3000 nM | 1.33 | –
E28 [1], 4.1 nM | – | 1.25
E28 [1], 12.3 nM | – | 0.858
E28 [1], 37 nM | – | 1.06
E28 [1], 111.1 nM | – | 0.728
E28 [1], 333.3 nM | – | 0.943
E28 [1], 1000 nM | – | 0.894
E28 [1], 3000 nM | – | 0.734
E28 [8], 4.1 nM | 1.03 | –
E28 [8], 12.3 nM | 0.793 | –
E28 [8], 37 nM | 0.737 | –
E28 [8], 111.1 nM | 0.922 | –
E28 [8], 333.3 nM | 0.691 | –
E28 [8], 1000 nM | 0.845 | –
E28 [8], 3000 nM | 1.24 | –
E31 [5], 4.1 nM | – | 0.893
E31 [5], 12.3 nM | – | 0.975
E31 [5], 37 nM | – | 0.905
E31 [5], 111.1 nM | – | 0.978
E31 [5], 333.3 nM | – | 1.17
E31 [5], 1000 nM | – | 0.945
E31 [5], 3000 nM | – | 0.906
E31 [12], 4.1 nM | 0.406 | –
E31 [12], 12.3 nM | 0.329 | –
E31 [12], 37 nM | 0.778 | –
E31 [12], 111.1 nM | 0.924 | –
E31 [12], 333.3 nM | 1.07 | –
E31 [12], 1000 nM | 0.762 | –
E31 [12], 3000 nM | 0.758 | –
E34 [7], 4.1 nM | – | 0.923
E34 [7], 12.3 nM | – | 0.963
E34 [7], 37 nM | – | 1.2
E34 [7], 111.1 nM | – | 0.942
E34 [7], 333.3 nM | – | 0.904
E34 [7], 1000 nM | – | 0.885
E34 [7], 3000 nM | – | 0.9
E34 [14], 4.1 nM | 1.09 | –
E34 [14], 12.3 nM | 0.577 | –
E34 [14], 37 nM | 0.765 | –
E34 [14], 111.1 nM | 1.86 | –
E34 [14], 333.3 nM | 0.741 | –
E34 [14], 1000 nM | 1.59 | –
E34 [14], 3000 nM | 1.13 | –
E57 [3], 4.1 nM | – | 0.904
E57 [3], 12.3 nM | – | 0.959
E57 [3], 37 nM | – | 1.02
E57 [3], 111.1 nM | – | 1.02
E57 [3], 333.3 nM | – | 1.02
E57 [3], 1000 nM | – | 1.04
E57 [3], 3000 nM | – | 0.94
E57 [10], 4.1 nM | 0.753 | –
E57 [10], 12.3 nM | 0.699 | –
E57 [10], 37 nM | 0.615 | –
E57 [10], 111.1 nM | 0.914 | –
E57 [10], 333.3 nM | 0.614 | –
E57 [10], 1000 nM | 1.06 | –
E57 [10], 3000 nM | 1.1 | –
FT3469 [6], 4.1 nM | – | 1.11
FT3469 [6], 12.3 nM | – | 0.924
FT3469 [6], 37 nM | – | 1.07
FT3469 [6], 111.1 nM | – | 1.06
FT3469 [6], 333.3 nM | – | 0.843
FT3469 [6], 1000 nM | – | 0.927
FT3469 [6], 3000 nM | – | 0.855
FT3469 [13], 4.1 nM | 0.942 | –
FT3469 [13], 12.3 nM | 0.464 | –
FT3469 [13], 37 nM | 2.87 | –
FT3469 [13], 111.1 nM | 0.576 | –
FT3469 [13], 333.3 nM | 0.57 | –
FT3469 [13], 1000 nM | 0.775 | –
FT3469 [13], 3000 nM | 0.616 | –

CC(C)NCC(O)COc1cccc2ccccc12 (stereo unspecified) [Propranolol hydrochloride]
Settings | phenotypic distance | surviving fraction
E13 [2], 4.1 nM | – | 0.971
E13 [2], 12.3 nM | – | 1.08
E13 [2], 37 nM | – | 0.923
E13 [2], 111.1 nM | – | 1.07
E13 [2], 333.3 nM | – | 1.1
E13 [2], 1000 nM | – | 1.03
E13 [2], 3000 nM | – | 0.991
E13 [9], 4.1 nM | 0.572 | –
E13 [9], 12.3 nM | 1.82 | –
E13 [9], 37 nM | 0.661 | –
E13 [9], 111.1 nM | 0.582 | –
E13 [9], 333.3 nM | 0.522 | –
E13 [9], 1000 nM | 0.547 | –
E13 [9], 3000 nM | 0.516 | –
E21 [4], 4.1 nM | – | 0.912
E21 [4], 12.3 nM | – | 0.926
E21 [4], 37 nM | – | 0.978
E21 [4], 111.1 nM | – | 1.01
E21 [4], 333.3 nM | – | 1.01
E21 [4], 1000 nM | – | 1.1
E21 [4], 3000 nM | – | 1
E21 [11], 4.1 nM | 0.729 | –
E21 [11], 12.3 nM | 0.784 | –
E21 [11], 37 nM | 0.999 | –
E21 [11], 111.1 nM | 0.707 | –
E21 [11], 333.3 nM | 0.864 | –
E21 [11], 1000 nM | 0.673 | –
E21 [11], 3000 nM | 0.713 | –
E28 [1], 4.1 nM | – | 0.98
E28 [1], 12.3 nM | – | 1.05
E28 [1], 37 nM | – | 0.949
E28 [1], 111.1 nM | – | 1.12
E28 [1], 333.3 nM | – | 1.03
E28 [1], 1000 nM | – | 1.13
E28 [1], 3000 nM | – | 1.03
E28 [8], 4.1 nM | 0.642 | –
E28 [8], 12.3 nM | 0.425 | –
E28 [8], 37 nM | 0.914 | –
E28 [8], 111.1 nM | 0.692 | –
E28 [8], 333.3 nM | 0.687 | –
E28 [8], 1000 nM | 0.509 | –
E28 [8], 3000 nM | 0.633 | –
E31 [5], 4.1 nM | – | 0.954
E31 [5], 12.3 nM | – | 0.993
E31 [5], 37 nM | – | 1.1
E31 [5], 111.1 nM | – | 1.08
E31 [5], 333.3 nM | – | 0.917
E31 [5], 1000 nM | – | 0.96
E31 [5], 3000 nM | – | 1.05
E31 [12], 4.1 nM | 0.541 | –
E31 [12], 12.3 nM | 0.694 | –
E31 [12], 37 nM | 0.736 | –
E31 [12], 111.1 nM | 0.802 | –
E31 [12], 333.3 nM | 0.203 | –
E31 [12], 1000 nM | 0.509 | –
E31 [12], 3000 nM | 0.646 | –
E34 [7], 4.1 nM | – | 0.945
E34 [7], 12.3 nM | – | 0.847
E34 [7], 37 nM | – | 0.941
E34 [7], 111.1 nM | – | 1.06
E34 [7], 333.3 nM | – | 0.876
E34 [7], 1000 nM | – | 1.1
E34 [7], 3000 nM | – | 0.949
E34 [14], 4.1 nM | 0.622 | –
E34 [14], 12.3 nM | 0.866 | –
E34 [14], 37 nM | 0.551 | –
E34 [14], 111.1 nM | 0.616 | –
E34 [14], 333.3 nM | 0.597 | –
E34 [14], 1000 nM | 0.71 | –
E34 [14], 3000 nM | 0.686 | –
E57 [3], 4.1 nM | – | 1.05
E57 [3], 12.3 nM | – | 0.959
E57 [3], 37 nM | – | 1.11
E57 [3], 111.1 nM | – | 1.14
E57 [3], 333.3 nM | – | 1.1
E57 [3], 1000 nM | – | 1.09
E57 [3], 3000 nM | – | 1.06
E57 [10], 4.1 nM | 0.6 | –
E57 [10], 12.3 nM | 1.04 | –
E57 [10], 37 nM | 0.554 | –
E57 [10], 111.1 nM | 0.801 | –
E57 [10], 333.3 nM | 0.597 | –
E57 [10], 1000 nM | 0.686 | –
E57 [10], 3000 nM | 0.742 | –
FT3469 [6], 4.1 nM | – | 0.985
FT3469 [6], 12.3 nM | – | 1.11
FT3469 [6], 37 nM | – | 1.03
FT3469 [6], 111.1 nM | – | 0.965
FT3469 [6], 333.3 nM | – | 1.01
FT3469 [6], 1000 nM | – | 1.24
FT3469 [6], 3000 nM | – | 1.13
FT3469 [13], 4.1 nM | 0.45 | –
FT3469 [13], 12.3 nM | 0.575 | –
FT3469 [13], 37 nM | 0.676 | –
FT3469 [13], 111.1 nM | 0.814 | –
FT3469 [13], 333.3 nM | 0.71 | –
FT3469 [13], 1000 nM | 0.957 | –
FT3469 [13], 3000 nM | 0.566 | –
